According to patent US4229371A, “Ureylene naphthalene sulfonic acid intermediates” (American Cyanamid Company, priority 1978, dated 1980):
Counter-ions that a name gives are not always drawn. Like-named read-outs stand apart in the source and are kept apart here.

Experiments:
whole complement = assay: In vivo activity, complement level reduction in serum of dosed guinea pigs (capillary tube assay); set-up: species or system guinea pig
[1] = system: shunt pathway activated by cobra venom factor; assay: Test, Code 036 (C-Shunt inhibitor); format: cell-based, human; details: higher well number indicates higher activity
Source text: (§1) An active inhibitor protects C2 from C1 and C4; (ii) Test, Code 035 (C3-C9 inhibitor)--This test determines the ability of the late components of human complement (C3-C9) to lyse EAC 142 in the presence of appropriate dilutions of the test compound. An active inhibitor protects EAC 142 from lysis by human C3-C9; (iii) Test, Code 036 (C-Shunt inhibitor)--In this test human erythrocytes rendered fragile are lysed in autologous serum via the shunt pathway activated by cobra venom factor in the presence of appropriate dilutions of the test compound. Inhibition of the shunt pathway results in failure of lysis; (iv) Forssman Vasculitis Test--Here, the well known complement dependent lesion, Forssman vasculitis, is produced in guinea pigs by intradermal injection of rabbit anti-Forssman antiserum. The lesion is measured in terms of diameter, edema and hemorrhage and the extent to which a combined index of these is inhibited by prior intraperitoneal injection of the test compound at 200 mg/kg is then reported, unless otherwise stated; (v) Forssman Shock Test--Lethan shock is produced in guinea pigs by an i.v. injection of anti-Forssman antiserum and the harmonic mean death time of treated guinea pigs is compared with that of simultaneous controls; (vi) Complement Level Reduction Test--In this test, the above dosed guinea pigs, or others, are bled for serum and the complement level is determined in undiluted serum by the capillary tube method of U.S. Pat. No. 3,876,376 and compared to undosed control guinea pigs; and (vii) Cap 50 Test--Here, appropriate amounts of the test compound are added to a pool of guinea pig serum in vitro, after which the undiluted serum capillary tube assay referred to above is run. The concentration of compound inhibiting 50% is reported.
(§2) *Code designation for tests employed as referred herein.
(§3) **Activity in wells a serial dilution assay. Higher well number indicates
(§4) higher activity. The serial dilutions are twofold.

activated human C1 = molecular target: T1, activated human C1 (Homo sapiens, UniProt P09871); assay: Test, Code 026 (C1 inhibitor); format: biochemical; details: higher well number indicates higher activity
T1 construct: test of C2 destruction in presence of C4
Source text: as §1, §2, §3, §4

[2] = system: late components of human complement (C3-C9); assay: Test, Code 035 (C3-C9 inhibitor); format: cell-based; details: higher well number indicates higher activity
Source text: as §1, §2, §3, §4

complement system = details: in words; literature; cited from earlier work
[3] = in words; literature; cited from earlier work
[4] = system: total hemolytic complement activity; details: human serum, in vitro; in words; cited from earlier work
[5] = system: total hemolytic complement activity; details: human serum; in words; cited from earlier work
[6] = Table I, activity in wells, twofold serial dilution assay
[7] = Table II, intraperitoneal, time 30 min.
[8] = Table II, intraperitoneal, time 60 min.
[9] = Table II, intraperitoneal, time 120 min.
[10] = Table II, intravenous, time 2 min.
[11] = Table II, intravenous, time 30 min.
[12] = Table II, intravenous, time 120 min.
[13] = Table II (intermediates), twofold serial dilution

T1 sequence (P09871 16-688): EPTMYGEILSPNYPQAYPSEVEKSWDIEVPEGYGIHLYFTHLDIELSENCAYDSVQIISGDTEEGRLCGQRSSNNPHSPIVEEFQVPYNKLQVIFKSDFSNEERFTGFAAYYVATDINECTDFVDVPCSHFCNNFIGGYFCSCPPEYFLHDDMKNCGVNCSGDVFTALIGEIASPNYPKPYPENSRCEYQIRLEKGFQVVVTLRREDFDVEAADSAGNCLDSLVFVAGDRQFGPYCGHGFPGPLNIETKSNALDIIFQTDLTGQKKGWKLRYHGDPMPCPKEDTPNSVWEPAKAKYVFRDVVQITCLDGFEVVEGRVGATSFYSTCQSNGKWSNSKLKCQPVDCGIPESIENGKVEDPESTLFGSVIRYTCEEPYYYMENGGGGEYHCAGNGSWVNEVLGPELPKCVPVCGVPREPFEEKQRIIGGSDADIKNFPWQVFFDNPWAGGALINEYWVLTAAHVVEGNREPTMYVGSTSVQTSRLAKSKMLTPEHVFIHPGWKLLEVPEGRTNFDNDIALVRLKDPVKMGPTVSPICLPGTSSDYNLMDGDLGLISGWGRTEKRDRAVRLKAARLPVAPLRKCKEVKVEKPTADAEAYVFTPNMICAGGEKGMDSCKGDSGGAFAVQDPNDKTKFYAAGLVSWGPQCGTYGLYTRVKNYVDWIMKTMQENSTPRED
T1 sequence (P00736 18-705 partner): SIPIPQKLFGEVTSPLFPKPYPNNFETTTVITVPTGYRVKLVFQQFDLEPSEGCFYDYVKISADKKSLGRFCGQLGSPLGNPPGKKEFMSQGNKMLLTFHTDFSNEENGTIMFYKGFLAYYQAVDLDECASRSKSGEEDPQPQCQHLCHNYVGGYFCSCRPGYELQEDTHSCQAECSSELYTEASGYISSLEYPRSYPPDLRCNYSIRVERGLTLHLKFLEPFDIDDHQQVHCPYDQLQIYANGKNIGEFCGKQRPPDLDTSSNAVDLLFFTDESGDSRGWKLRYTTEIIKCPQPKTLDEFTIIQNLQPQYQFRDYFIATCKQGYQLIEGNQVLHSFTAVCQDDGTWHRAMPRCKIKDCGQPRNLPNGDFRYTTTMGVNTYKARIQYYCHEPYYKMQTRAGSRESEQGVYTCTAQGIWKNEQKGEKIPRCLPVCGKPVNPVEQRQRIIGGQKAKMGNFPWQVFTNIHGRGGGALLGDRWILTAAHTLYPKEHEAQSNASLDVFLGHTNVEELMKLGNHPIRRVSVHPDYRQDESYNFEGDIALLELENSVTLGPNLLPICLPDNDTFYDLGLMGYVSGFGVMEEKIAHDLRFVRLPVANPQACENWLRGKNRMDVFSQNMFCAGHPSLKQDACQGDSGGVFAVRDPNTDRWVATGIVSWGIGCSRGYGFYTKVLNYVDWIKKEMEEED
T1 sequence (P02745 23-245 partner): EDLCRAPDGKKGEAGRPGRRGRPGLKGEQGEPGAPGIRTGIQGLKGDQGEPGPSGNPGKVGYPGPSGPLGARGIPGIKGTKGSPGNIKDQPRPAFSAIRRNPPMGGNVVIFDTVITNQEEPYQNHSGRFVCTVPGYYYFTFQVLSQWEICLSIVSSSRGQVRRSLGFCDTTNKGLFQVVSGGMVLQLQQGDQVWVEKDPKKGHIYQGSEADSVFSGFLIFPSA
T1 sequence (P02746 28-253 partner): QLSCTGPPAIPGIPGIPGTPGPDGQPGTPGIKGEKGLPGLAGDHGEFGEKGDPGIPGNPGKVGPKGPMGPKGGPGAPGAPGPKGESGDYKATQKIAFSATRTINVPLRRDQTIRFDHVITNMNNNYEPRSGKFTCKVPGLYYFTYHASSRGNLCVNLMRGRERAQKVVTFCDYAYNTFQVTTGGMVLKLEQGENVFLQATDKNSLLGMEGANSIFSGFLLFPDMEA
T1 sequence (P02747 29-245 partner): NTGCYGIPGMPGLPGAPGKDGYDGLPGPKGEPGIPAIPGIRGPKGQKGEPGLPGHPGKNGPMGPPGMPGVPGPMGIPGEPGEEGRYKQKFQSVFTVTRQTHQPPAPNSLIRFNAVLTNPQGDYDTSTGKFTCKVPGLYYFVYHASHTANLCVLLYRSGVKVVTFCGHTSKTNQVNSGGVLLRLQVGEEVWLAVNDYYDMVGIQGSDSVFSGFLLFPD

Compound: O=C(Nc1ccc(C(=O)Nc2cc(C(=O)Nc3cc(S(=O)(=O)O)cc4cc(S(=O)(=O)O)cc(S(=O)(=O)O)c34)cc(C(=O)Nc3cc(S(=O)(=O)O)cc4cc(S(=O)(=O)O)cc(S(=O)(=O)O)c34)c2)c(S(=O)(=O)O)c1)Nc1ccc(C(=O)Nc2cc(C(=O)Nc3cc(S(=O)(=O)O)cc4cc(S(=O)(=O)O)cc(S(=O)(=O)O)c34)cc(C(=O)Nc3cc(S(=O)(=O)O)cc4cc(S(=O)(=O)O)cc(S(=O)(=O)O)c34)c2)c(S(=O)(=O)O)c1 [8,8',8",8'"Ureylenebis[(2-sulfo-4,1-phenylene)carbonylimino-s-phenenylbis(carbonylimino)]tetra-1,3,6-naphthalenetrisulfonic acid tetradecyl sodium salt]
- In Vivo Activity (Guinea Pig) % Inhibition (whole complement; Table I, intravenous, 200 mg/kg, time 2 minutes): -97%
- In Vivo Activity (Guinea Pig) % Inhibition (whole complement; Table I, intravenous, 200 mg/kg, time 30 minutes): -96%
- In Vivo Activity (Guinea Pig) % Inhibition (whole complement; Table I, intravenous, 200 mg/kg, time printed 20 minutes): -95%
- Shunt Inhibition 036 Wells [1, 6]: +5 Wells
- Cl 026 Wells (activated human C1; [6]): +8 Wells
- C-Late 035 Wells [2, 6]: +5 Wells

Compound: Nc1ccc(C(=O)Nc2cc(C(=O)Nc3cc(S(=O)(=O)O)cc4cc(S(=O)(=O)O)cc(S(=O)(=O)O)c34)cc(C(=O)Nc3cc(S(=O)(=O)O)cc4cc(S(=O)(=O)O)cc(S(=O)(=O)O)c34)c2)c(S(=O)(=O)O)c1 [8,8'-[5-(4-Amino-2-sulfobenzamido)-1,3-phenylenedicarbonylimino]di-1,3,6-naphthalenetrisulfonic acid heptasodium salt]
- In Vivo Activity (Guinea Pig) % Inhibition (whole complement; [7]): -45%
- In Vivo Activity (Guinea Pig) % Inhibition (whole complement; [8]): -61%
- In Vivo Activity (Guinea Pig) % Inhibition (whole complement; [9]): -73%
- In Vivo Activity (Guinea Pig) % Inhibition (whole complement; [10]): -98%
- In Vivo Activity (Guinea Pig) % Inhibition (whole complement; [11]): -79%
- In Vivo Activity (Guinea Pig) % Inhibition (whole complement; [12]): -45%
- Shunt Inhibition 036 Wells [1, 13]: +2 Wells
- Cl 026 Wells (activated human C1; [13]): +6 Wells
- C-Late 035 Wells [2, 13]: +3 Wells

Compound: O=C(Nc1cc(S(=O)(=O)O)cc2cc(S(=O)(=O)O)cc(S(=O)(=O)O)c12)c1cc(NC(=O)c2ccc([N+](=O)[O-])cc2S(=O)(=O)O)cc(C(=O)Nc2cc(S(=O)(=O)O)cc3cc(S(=O)(=O)O)cc(S(=O)(=O)O)c23)c1 [8,8'-[5-(4-Nitro-2-sulfobenzamido)-1,3-phenylenedicarbonylimino]di-1,3,6-naphthalenetrisulfonic acid heptasodium salt]
- In Vivo Activity (Guinea Pig) % Inhibition (whole complement; [7]): -40%
- In Vivo Activity (Guinea Pig) % Inhibition (whole complement; [8]): -55%
- In Vivo Activity (Guinea Pig) % Inhibition (whole complement; [9]): -74%
- In Vivo Activity (Guinea Pig) % Inhibition (whole complement; [10]): -91%
- In Vivo Activity (Guinea Pig) % Inhibition (whole complement; [11]): -59%
- In Vivo Activity (Guinea Pig) % Inhibition (whole complement; [12]): -51%
- Shunt Inhibition 036 Wells [1, 13]: +1 Wells
- Cl 026 Wells (activated human C1; [13]): +4 Wells
- C-Late 035 Wells [2, 13]: +2 Wells

Compound: Cc1ccc(C(=O)Nc2ccc(S(=O)(=O)O)c3cc(S(=O)(=O)O)cc(S(=O)(=O)O)c23)cc1NC(=O)c1cccc(NC(=O)Nc2cccc(C(=O)Nc3cc(C(=O)Nc4ccc(S(=O)(=O)O)c5cc(S(=O)(=O)O)cc(S(=O)(=O)O)c45)ccc3C)c2)c1 [Suramin]
- anticomplementary effect / complement inhibition (complement system): competitive inhibitor of the complement system

Compound: Nc1ccc2cc(S(=O)(=O)O)cc(O)c2c1N=Nc1ccc(NC(=O)Nc2ccc(N=Nc3c(N)ccc4cc(S(=O)(=O)O)cc(O)c34)c(S(=O)(=O)O)c2)cc1S(=O)(=O)O [chlorazol fast pink, 3,3'-ureylenebis-[6-(2-amino-8-hydroxy-6-sulfo-1-naphthylazo)]benzenesulfonic acid, tetrasodium salt]
- anticomplementary effect / complement inhibition (complement system): anticomplementary effect

Compound: NCCCCCC(=O)O [epsilon-aminocaproic acid]
- success in the treatment of hereditary angioneurotic edema [3]: used with success in the treatment of hereditary angioneurotic edema

Compound: NC[C@H]1CC[C@H](C(=O)O)CC1 [tranexamic acid]
- success in the treatment of hereditary angioneurotic edema [3]: used with success in the treatment of hereditary angioneurotic edema

Compound: heparin
- anticomplementary effect / complement inhibition (complement system): anticomplementary effect

Compound: pentosanpoly-sulfoester
- anticomplementary activity (reduction in total hemolytic complement activity) [4]: anticomplementary activity on human serum both in vitro and in vivo
- anticomplementary activity (reduction in total hemolytic complement activity) [5]: anticomplementary activity on human serum both in vitro and in vivo
